# Measured values as given in US11214803B2, “Modulators of YAP1 expression” (Ionis Pharmaceuticals, Inc., priority 2019, dated 2022).
# Strand notation (5' to 3'): a small letter for the sugar, then the base; units joined by * are phosphorothioate-linked, units joined directly phosphodiester-linked; [ ] holds rarer units or linkages, { } end groups; capitals alone tell only the bases. k = constrained ethyl (cEt); [5mC] = 5-methylcytosine; d = 2'-deoxy (DNA)
# System: Yap1 mRNA
# Experiment: Antisense inhibition of human Yap1 in A-431 cells by cEt gapmers, single dose (Example 3, RTS36584)
# Format: cell-based
# Method in brief: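 Human epidermoid A-431 cells take up gapmer (2,000 nM, free uptake, ~48 h); Yap1 transcript is then assayed by qRT-PCR with RiboGreen normalization and reported relative to untreated cells. Gapmers carry cEt-modified wings, phosphorothioate linkages and 5-methylcytosine throughout.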
# [1] = Table 28, Yap1 mRNA as percent of untreated control, 3-10-3 cEt gapmers targeting SEQ ID NO.: 1, and 2
# [2] = Table 9, A-431 cells, 5,000 cells per well, free uptake, 2,000 nM, approximately 48 hours, RTS36584, normalized to RIBOGREEN, Yap1 mRNA relative to untreated control cells
# [3] = Table 13, A-431 cells, 5,000 cells per well, free uptake, 2,000 nM modified oligonucleotide, approx. 48 hours, RTS36584, normalized to RIBOGREEN, Yap1 mRNA relative to untreated control cells
# [4] = Table 11, A-431 cells, 5,000 cells per well, free uptake, 2,000 nM oligonucleotide, approx. 48 hours, primer probe set RTS36584, Yap1 mRNA normalized to RIBOGREEN, percent of untreated control
# [5] = Table 35, Yap1 mRNA as percent of untreated control, 3-10-3 cEt gapmers targeting SEQ ID NO: 1 and 2, single dose
# [6] = Table 8, A-431 cells, 5,000 cells per well, free uptake, 2,000 nM, approximately 48 hours, RTS36584, normalized to RIBOGREEN, Yap1 mRNA relative to untreated control cells
# [7] = Table 27, Yap1 mRNA by 3-10-3 cEt gapmers targeting SEQ ID NO.: 1, and 2, percent of untreated control
# [8] = Table 26, Yap1 mRNA by 3-10-3 cEt gapmers targeting SEQ ID NO.: 1, and 2, percent of untreated control
# [9] = Table 34, Yap1 mRNA as percent of untreated control, 3-10-3 cEt gapmers targeting SEQ ID NO: 1 and 2, single dose
# [10] = Table 12, A-431 cells, 5,000 cells per well, free uptake, 2,000 nM modified oligonucleotide, approx. 48 hours, RTS36584, normalized to RIBOGREEN, Yap1 mRNA relative to untreated control cells
substance,measurement,setting,value
1074926 (antisense k[5mC]*kA*kA*d[5mC]*dA*dG*dG*d[5mC]*d[5mC]*dT*dG*d[5mC]*dA*kA*kA*kT) [compound 1074926],YAP1 (% UTC),[1],111 % UTC
958736 (antisense kG*kT*kG*dA*dT*dA*dT*dG*dG*dA*dT*dT*d[5mC]*kT*kG*kT) [Compound 958736],YAP1 (% UTC),[2],3 % UTC
958790 (antisense kG*kA*kA*dA*dA*dG*dA*d[5mC]*dG*dA*d[5mC]*dA*d[5mC]*kA*kG*kT) [Compound 958790],YAP1 (% UTC),[3],68 % UTC
958643 (antisense kT*kA*kG*d[5mC]*dA*dA*d[5mC]*d[5mC]*d[5mC]*dA*d[5mC]*d[5mC]*d[5mC]*kT*kG*kG) [Compound 958643],YAP1 (% UTC),[4],59 % UTC
1074869 (kA*kG*kT*dA*d[5mC]*d[5mC]*dT*dA*dA*d[5mC]*dA*dT*dA*kT*kG*kA; antisense) [compound 1074869],YAP1 (% UTC),[5],31 % UTC
958414 (antisense k[5mC]*kA*kG*dA*dA*dT*dT*d[5mC]*d[5mC]*d[5mC]*dA*dA*dG*k[5mC]*kT*kA) [Compound 958414],YAP1 (% UTC),[6],73 % UTC
1075085 (antisense kT*kG*k[5mC]*dG*dG*dA*dA*dA*d[5mC]*dA*dA*dG*dT*kG*kT*kA) [compound 1075085],YAP1 (% UTC),[7],11 % UTC
1075981 (kA*kA*kG*d[5mC]*dA*dA*dT*dA*dT*d[5mC]*d[5mC]*dT*dA*k[5mC]*kA*k[5mC]; antisense) [compound 1075981],YAP1 (% UTC),[7],40 % UTC
958407 (antisense kA*kA*kT*dA*d[5mC]*dT*dG*dA*dT*d[5mC]*dT*dG*d[5mC]*kA*kG*k[5mC]) [Compound 958407],YAP1 (% UTC),[6],35 % UTC
958466 (antisense kG*kT*k[5mC]*dA*dT*dT*dA*dA*dG*dG*dA*dT*dG*kT*k[5mC]*kA) [Compound 958466],YAP1 (% UTC),[2],9 % UTC
1074156 (kA*kG*kG*dG*d[5mC]*dT*dA*d[5mC]*dG*d[5mC]*d[5mC]*d[5mC]*dG*kG*kA*k[5mC]; antisense) [compound 1074156],YAP1 (% UTC),[8],96 % UTC
958445 (antisense kG*kG*k[5mC]*dT*dA*d[5mC]*dG*d[5mC]*d[5mC]*d[5mC]*dG*dG*dA*k[5mC]*kG*k[5mC]) [Compound 958445],YAP1 (% UTC),[3],63 % UTC
1076108 (kA*kA*kA*d[5mC]*dA*dA*dA*dA*d[5mC]*d[5mC]*dG*dG*d[5mC]*kT*kT*kT; antisense) [compound 1076108],YAP1 (% UTC),[8],116 % UTC
1074350 (antisense kT*kA*kG*dT*d[5mC]*d[5mC]*dA*d[5mC]*dT*dG*dT*d[5mC]*dT*kG*kT*kA) [compound 1074350],YAP1 (% UTC),[1],14 % UTC
958369 (antisense kT*kT*kA*dT*d[5mC]*dT*dA*dG*d[5mC]*dT*dT*dG*dG*kT*kG*kG) [Compound 958369],YAP1 (% UTC),[6],4 % UTC
958751 (antisense kT*k[5mC]*kA*dA*dT*dG*d[5mC]*dA*dG*dG*dA*dT*dT*k[5mC]*k[5mC]*kA) [Compound 958751],YAP1 (% UTC),[2],30 % UTC
958703 (antisense kG*kA*kT*dA*dA*d[5mC]*dT*dA*dA*dG*d[5mC]*dA*d[5mC]*kT*kA*k[5mC]) [Compound 958703],YAP1 (% UTC),[4],49 % UTC
1074253 (antisense kT*k[5mC]*kT*dG*dG*dG*dA*d[5mC]*dA*dG*d[5mC]*dA*dT*kG*kG*k[5mC]) [compound 1074253],YAP1 (% UTC),[7],11 % UTC
958401 (antisense kA*kG*kT*dT*dA*dT*dT*d[5mC]*dA*dG*d[5mC]*dA*dG*k[5mC]*kT*kT) [Compound 958401],YAP1 (% UTC),[6],19 % UTC
1074540 (kA*k[5mC]*kT*dA*dT*d[5mC]*d[5mC]*dA*d[5mC]*dA*dG*dT*dA*kA*kT*kA; antisense) [compound 1074540],YAP1 (% UTC),[8],26 % UTC
958772 (antisense k[5mC]*kA*kA*d[5mC]*dA*dA*dA*d[5mC]*dA*dT*dA*dG*dT*kT*kA*k[5mC]) [Compound 958772],YAP1 (% UTC),"Table 10, A-431 cells, 5,000 cells per well, free uptake, 2,000 nM oligonucleotide, approx. 48 hours, primer probe set RTS36584, Yap1 mRNA normalized to RIBOGREEN, percent of untreated control",61 % UTC
1075244 (kA*k[5mC]*k[5mC]*d[5mC]*dA*dA*dA*dA*dA*dT*dT*d[5mC]*dT*kG*kT*kG; antisense) [compound 1075244],YAP1 (% UTC),[8],76 % UTC
958818 (kG*kT*kT*dG*dT*d[5mC]*dA*dA*d[5mC]*dT*d[5mC]*dT*dA*kG*kG*kG; antisense) [Compound 958818],YAP1 (% UTC),[4],23 % UTC
1074831 (k[5mC]*kG*kA*dG*dG*dA*dT*dA*dA*dA*dA*dT*d[5mC]*k[5mC]*kA*k[5mC]; antisense) [compound 1074831],YAP1 (% UTC),"Table 29, Yap1 mRNA as percent of untreated control, 3-10-3 cEt gapmers targeting SEQ ID NO.: 1, and 2",35 % UTC
1074132 (k[5mC]*kG*kG*d[5mC]*d[5mC]*d[5mC]*d[5mC]*dG*d[5mC]*dA*dT*d[5mC]*d[5mC]*k[5mC]*k[5mC]*k[5mC]; antisense) [compound 1074132],YAP1 (% UTC),[9],96 % UTC
1076365 (antisense kT*kA*kA*dG*dA*dA*dG*dG*dG*d[5mC]*d[5mC]*dA*dA*kT*kG*kG) [compound 1076365],YAP1 (% UTC),[7],15 % UTC
958758 (antisense k[5mC]*kT*kA*dT*dT*d[5mC]*dA*dG*dT*dG*dA*dT*d[5mC]*kT*kG*k[5mC]) [Compound 958758],YAP1 (% UTC),[4],2 % UTC
958753 (antisense kT*kG*kT*dA*dT*dA*dT*dG*d[5mC]*d[5mC]*dG*dT*dT*k[5mC]*k[5mC]*k[5mC]) [Compound 958753],YAP1 (% UTC),[4],4 % UTC
958521 (kT*kT*k[5mC]*d[5mC]*dA*dA*dT*dT*d[5mC]*dA*dT*d[5mC]*dA*kG*kA*kT; antisense) [Compound 958521],YAP1 (% UTC),[2],14 % UTC
958688 (antisense kG*kG*k[5mC]*dT*dA*dT*dG*dT*dA*dG*d[5mC]*d[5mC]*dT*kT*k[5mC]*k[5mC]) [Compound 958688],YAP1 (% UTC),[4],82 % UTC
1075950 (antisense kT*kG*kA*d[5mC]*dA*dA*dT*dA*d[5mC]*d[5mC]*dT*dT*d[5mC]*k[5mC]*kT*kA) [compound 1075950],YAP1 (% UTC),[1],30 % UTC
958599 (kT*kT*k[5mC]*dA*dA*dG*dA*dA*dT*dA*d[5mC]*d[5mC]*d[5mC]*kA*kG*kT; antisense) [Compound 958599],YAP1 (% UTC),[10],5 % UTC
958408 (antisense k[5mC]*kT*kA*dT*dA*dT*dA*dT*dG*dG*dT*dA*dG*kT*k[5mC]*kT) [Compound 958408],YAP1 (% UTC),[6],20 % UTC
958402 (antisense k[5mC]*kT*k[5mC]*dT*dT*dA*d[5mC]*dA*d[5mC]*dA*dG*d[5mC]*d[5mC]*kT*kA*kG) [Compound 958402],YAP1 (% UTC),[6],28 % UTC
958605 (antisense k[5mC]*kT*k[5mC]*dA*dG*dA*dT*dG*dT*dA*d[5mC]*d[5mC]*dA*kA*k[5mC]*kG) [Compound 958605],YAP1 (% UTC),[3],7 % UTC
1075412 (antisense kT*k[5mC]*k[5mC]*dA*dA*dA*dA*dA*dG*dG*dG*dT*dA*kA*kG*kG) [compound 1075412],YAP1 (% UTC),[9],48 % UTC
1074805 (kG*kT*kA*dG*d[5mC]*dA*dA*dA*dG*dT*d[5mC]*dA*d[5mC]*kT*kT*k[5mC]; antisense) [compound 1074805],YAP1 (% UTC),[5],9 % UTC
958689 (antisense k[5mC]*kA*kT*dT*dA*dA*dG*dG*dA*dG*dG*dT*dT*kA*kT*kG) [Compound 958689],YAP1 (% UTC),[10],87 % UTC
958417 (antisense kA*k[5mC]*kG*dG*dA*dT*dA*dA*dA*dA*dA*dT*dT*kA*k[5mC]*kT) [Compound 958417],YAP1 (% UTC),[6],85 % UTC
958658 (kA*k[5mC]*kA*dG*dT*dA*dT*dA*dA*dT*dA*dT*d[5mC]*k[5mC]*kT*kA; antisense) [Compound 958658],YAP1 (% UTC),[4],6 % UTC
1074381 (kA*kG*kT*d[5mC]*dT*dG*dG*dG*dA*dA*dA*d[5mC]*dG*kG*kT*kT; antisense) [compound 1074381],YAP1 (% UTC),[7],16 % UTC
958733 (antisense kT*kA*kA*dT*dA*dG*dA*d[5mC]*dT*dA*dG*dA*d[5mC]*kT*kT*kA) [Compound 958733],YAP1 (% UTC),[4],67 % UTC
958809 (kT*k[5mC]*kT*dT*dA*dA*d[5mC]*dA*d[5mC]*d[5mC]*dT*dG*dA*kG*k[5mC]*kT; antisense) [Compound 958809],YAP1 (% UTC),[10],66 % UTC
